For one assay, the target named is BCL-XL (Homo sapiens (Human), UniProt Q07817). The assay is described as follows: Protein-protein interaction assay BCL-XL/Bad BH3 peptide (BCL-XL Assay, TR-FRET). The assay is classed as binding. The note with it: read-out: BCL-XL Assay IC50 (median).
In the next assay the test system is AMO-1. The experiment in a line: Antiproliferation assay 7, AMO-1. The note with it: AMO-1 cells, CellTiter-Glo, read-out: Antiproli AMO-1 IC50 median. The assay is classed as cell-based. The gist of the method: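 Proliferation was read by CellTiter-Glo luminescence after 72 hours of compound treatment at 37° C. The read was referenced to a parallel plate measured at time zero.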
In general terms: Cellular ATP, detected with luciferase, serves as a proxy for viable cell number.

Assay [1] concerns the target full length endogenous MCL1 protein (Homo sapiens (Human), UniProt Q07820). The assay is described as follows: PIxEL: protein-protein interaction in permeabilized cells by ELISA (Assay 5). The format is cell-based. The note with it: permeabilized RKO cells, biotin-BIM BH3 peptide, read-out: PIxEL IC50 (median). How it is done: PIxEL: Protein-Protein Interaction in Permeabilized Cells by ELISA
Most MCL1 protein molecules are localized at the mitochondria outer membrane and sequester pro-apoptotic proteins through binding of their BCL2 homology domain 3 (BH3 domain). MEB buffer (150 mM mannitol, 10 mM HEPES pH 7.5, 50 mM KCl, 20 μM EDTA, 20 μM EGTA, 5 mM potassium succinate, 0.1% protease-free BSA (SIGMA) with low dose digitonin (0.002%) permeabilizes plasma membrane while leaves live mitochondria, where MCL1 maintains its native localization and conformation. Unlike biophysical assays (e.g. TR-FRET) that use truncated recombinant MCL1 protein, this assay uses full length endogenous MCL1 protein at mitochondria outer membrane. It measures the interaction between MCL1 protein and biotinylated BIM BH3 peptide. Compounds can compete with BIM BH3 peptide to bind to MCL1 protein. This serum free assay measures the affinity between MCL1 protein and compound in permeabilized cells, therefore it is not affected by serum binding and cell permeability, and can measure the intrinsic compound affinity.
On day 1, RKO colon cancer cell line cells were plated at 0.8 million cells/ml, 100 μl/well in 96-well flat bottom TC plates (Corning). MCL1 antibody (Santa Cruz sc-12756) were diluted at 200 fold (final concentration 1 μg/ml) in carbonate buffer (Thermo Fisher Scientific, pH 9.6), and 50 μl of diluted antibody was added to each well of high bind ELISA plates ([…]). Each plate was tapped to make sure liquid covering entire bottom of wells and incubate at 37° C. overnight.
On the second day, MCL1 antibody was washed from ELISA plate. 250 μl Odyssey® Blocking Buffer (PBS) (Li-Cor) was added to each well, incubated at room temperature for at least 1 hour, then washed once with 250 μl 1×PBST. Plates with RKO cells were gently washed once with 100 μl/well PBS, once with 100 μl/well MEB buffer without digitonin, then 100 μl of MEB buffer with 0.002% digitonin was gently added to each well. Compounds were added with HP Tecan compound dispenser in 3-fold dilution series, highest dose 30 μM, 10-dose per compound in quadruplicates. Biotin-BIM peptide (synthesized by 21st Century) was added with HP Tecan compound dispenser at 0.2 μM immediately after the addition of compounds. Plates were rocked for 1 h at room temperature. Then MEB buffer was aspirated and 50 μl of CHAPS buffer (50 mM Tris-Cl, pH 7.4, 150 mM NaCl, 1% CHAPS, 1 mM EDTA, 1 mM EGTA, complete protease inhibitors (Roche), PhosSTOP (Roche)) was added to each well. […]
On the third day, ELISA plates were washed once with 250 μl 1×PBST. […] Plates were shaken for 1 minute then luminescence was measured by Envision plate reader (HP). […] IC50 was calculated using Graphic Pad PRISM software.
Background: In an ELISA, binding on a coated surface is turned into a signal by an enzyme label.

A further assay deals with SUDHL10. The assay is described as follows: Induction of caspase-3/7 activity (Assay 4), SUDHL10. The assay is classed as cell-based. The note with it: SUDHL10 cells. In a few lines:
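Luminescent Caspase-Glo 3/7 read-out after a 3 h, 37 °C compound exposure of the DLBCL line SUDHL10. Values are background-corrected using medium-only wells.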

The mark [2] stands for this setting: 3 hours, Caspase-Glo 3/7, read-out: Caspase SUDHL10 EC50 (median).

This is an account of results in US11447504B2, “Macrocyclic chlorine substituted indole derivatives” (Bayer Aktiengesellschaft, priority 2017, dated 2022).

SMILES strings stand for the structures. Where a name gives a salt, the structure may show the parent alone. Read-outs that look alike come from different tables or passages of the source.

Sequence of full length endogenous MCL1 protein (Q07820 whole entry, the tested form may be a part): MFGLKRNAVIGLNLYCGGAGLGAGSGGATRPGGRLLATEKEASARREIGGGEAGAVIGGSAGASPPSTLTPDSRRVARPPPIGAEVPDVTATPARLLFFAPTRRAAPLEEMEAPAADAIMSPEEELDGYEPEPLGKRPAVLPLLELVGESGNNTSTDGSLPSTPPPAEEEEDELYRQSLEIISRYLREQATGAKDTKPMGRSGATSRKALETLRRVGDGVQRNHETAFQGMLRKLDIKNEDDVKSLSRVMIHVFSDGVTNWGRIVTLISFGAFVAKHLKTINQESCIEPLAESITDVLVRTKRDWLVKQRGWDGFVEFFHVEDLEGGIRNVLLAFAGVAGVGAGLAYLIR
Sequence of BCL-XL (Q07817 other isoform, or with tags, fused parts or gaps): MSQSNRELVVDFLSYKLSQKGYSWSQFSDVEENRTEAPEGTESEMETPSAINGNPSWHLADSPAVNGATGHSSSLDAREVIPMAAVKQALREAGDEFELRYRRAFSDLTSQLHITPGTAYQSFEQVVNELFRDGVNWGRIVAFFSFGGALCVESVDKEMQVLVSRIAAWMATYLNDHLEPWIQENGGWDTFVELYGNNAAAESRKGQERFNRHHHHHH

In the case of `Cc1c2c(nn1C)N(C)CCCCCn1c(C(=O)O)c(CCCOc3cccc4cc(F)ccc34)c3ccc(Cl)c-2c31` (racemic) [Example 74, (rac)-4-chloro-7-{3-[(6-fluoronaphthalen-1-yl)oxy]propyl}-2,3,15-trimethyl-10,11,12,13,14,15-hexahydro-2H-pyrazolo[4′,3′:4,5][1,6]diazacycloundecino[3,2,1-hi]indole-8-carboxylic acid], the IC50 at BCL-XL was greater than 20 µM; in the assay with AMO-1 (72 hours), 1100 nM; in assay [1] it was 0.214 µM. Moreover, in the assay with SUDHL10 (setting [2]), the EC50 was determined as 1000 nM.
`Cc1c2c(nn1C)N(C)CCCCCn1c(C(=O)O)c(CCCOc3cccc4ccccc34)c3ccc(Cl)c-2c31` (racemic) [Example 71, (rac)-4-chloro-2,3,15-trimethyl-7-{3-[(naphthalen-1-yl)oxy]propyl}-10,11,12,13,14,15-hexahydro-2H-pyrazolo[4′,3′:4,5][1,6]diazacycloundecino[3,2,1-hi]indole-8-carboxylic acid]: the IC50 at BCL-XL was greater than 20 µM; with AMO-1 (Homo sapiens, AMO1, 72 h), 5000 nM; in assay [1] (printed in uM), greater than 30 µM. In the assay on SUDHL10 (Homo sapiens, SU-DHL10, 3 h, Caspase-Glo 3/7, read-out: Caspase SUDHL10 EC50 (median)), the EC50 turned out to be 1800 nM.
Take `Cc1c2c(nn1C)N(C)CCCCCn1c(C(=O)O)c(CCCOc3cccc4cc(F)ccc34)c3ccc(Cl)c-2c31` [Example 75, (+)-4-chloro-7-{3-[(6-fluoronaphthalen-1-yl)oxy]propyl}-2,3,15-trimethyl-10,11,12,13,14,15-hexahydro-2H-pyrazolo[4′,3′:4,5][1,6]diazacycloundecino[3,2,1-hi]indole-8-carboxylic acid-N-ethylethanamine salt]: the IC50 at BCL-XL was greater than 20 µM; in the assay with AMO-1 (72 hours) it was 1100 nM; in assay [1], 0.146 µM. For the same molecule, the EC50 in the assay on SUDHL10 (setting [2]) worked out at 740 nM.
The matching figures for `CCc1c2c(nn1C)N(C)CCCCCn1c(C(=O)O)c(CCCOc3cccc4cc(F)ccc34)c3ccc(Cl)c-2c31` (single isomer, unassigned; enantiomer 1) [Example 78, 4-chloro-3-ethyl-7-{3-[(6-fluoronaphthalen-1-yl)oxy]propyl}-2,15-dimethyl-10,11,12,13,14,15-hexahydro-2H-pyrazolo[4′,3′:4,5][1,6]diazacycloundecino[3,2,1-hi]indole-8-carboxylic acid-N-ethylethanamine Salt—Enantiomer 1]: greater than 20 µM, 770 nM, 0.037 µM and 320 nM.

As usually defined, the IC50 is the midpoint of a concentration-inhibition curve. By EC50 is commonly meant the midpoint of the concentration-response curve.
